Values quoted from earlier work as cited in article PMC5517430, “2,3,7,8-Tetrachlorodibenzo-p-dioxin (TCDD)-elicited effects on bile acid homeostasis: Alterations in biosynthesis, enterohepatic circulation, and microbial metabolism” (Scientific Reports, 2017).

Tested on: FXR
Design: method as in PMID 23395169
Details: cited from earlier work

SMILES	FXR antagonism
C[C@H](CCC(=O)NCCS(=O)(=O)O)[C@H]1CC[C@H]2[C@@H]3[C@H](O)[C@@H](O)[C@@H]4C[C@H](O)CC[C@]4(C)[C@H]3CC[C@]12C [T-α-MCA, tauro-α-muricholic acid]	competitive antagonists
C[C@H](CCC(=O)NCCS(=O)(=O)O)[C@H]1CC[C@H]2[C@@H]3[C@@H](O)[C@@H](O)[C@@H]4C[C@H](O)CC[C@]4(C)[C@H]3CC[C@]12C [T-β-MCA]	competitive antagonists
